Laboratory results reported in a melting point compilation (Tetko et al.; mined from patent text by program, amines drawn as free bases though some values may be those of a salt).

SMILES	melting point
c1ccc(N2CCN(CCC3CCC(Nc4cccnc4)CC3)CC2)cc1 (stereo not given)	159 to 160 °C
CC1(C)C(=O)CC(=O)C(C)(C)C1=O	92.5 to 93 °C
NC(=NO)c1ccc2c(c1)nc(-c1ccc(OCc3ccccc3)cc1)n2C1CCCC1	225 to 226 °C
COC(=O)C1(NC(=O)Cc2cc(-c3ccc(F)cc3)ccc2C)CCC(F)(F)CC1	187 °C
OCCn1cc(-c2ccccc2)c(OCc2ccccc2)n1	115 °C
CCCCCCCCc1ccc(OCC(=O)Cn2ncc3ccccc32)cc1	66 to 67 °C
COc1cc2c3c(c1)[nH]c(=S)n3CCC2	188 to 192 °C
CCCn1c2cc(C)ccc2c2oc(C(=O)Cl)cc21	130 to 132 °C
COC(=O)C1CCC(C(=O)Nc2sc3c(c2C(=O)NCc2ccc4c(c2)OCO4)CCCC3)CC1 (stereo not given)	173 °C
CCCCCCCCCCCCCCCCCCSSSSCCCCCCCCCCCCCCCCCC	44 to 45 °C
Fc1cc(I)ccc1Nc1c(-c2nnc(NCCN3CCOCC3)o2)ccc(F)c1F	77 to 80 °C
CCc1nn2ccc3c(c2c1C(C)=O)CCO3	164 to 165 °C
CCCc1c(OCCCCCc2c(Cl)ccc(O)c2O)ccc(C(=O)O)c1O	178 to 181 °C
Cc1oc(-c2ccccc2)nc1COc1ccc(CCCCCC2OC(=O)NC2=O)cc1 (stereo not given)	120 to 121 °C
COc1cc(OCCOC(C)C)cc2nc(-c3cc(C)nc(C)c3)[nH]c(=O)c12	188 to 189 °C
Clc1ccc2c(c1)SCc1cccnc1C2=C1CCNCC1	206 to 215 °C
COCc1nnc(-c2cccnc2)n1-c1c(Cl)c(C)cc2nc(OC)c(OC)nc12	183 to 184 °C
CCOC(=O)Cc1ccc(-c2ccc3oc(C(=O)OCC)c(C)c3c2)cc1	110 to 112 °C
O=C(O)CC1(c2ccc(F)cc2)CNC(=O)C1 (stereo not given)	174 to 176 °C
COC(=O)c1ccc(OCCN2CCN(c3cc(Cl)nnc3Cl)CC2)nc1	145 to 146 °C

SMILES	melting point
CCOCc1nc2c(N)nc3ccccc3c2n1CCOCCNC(=O)NC1CCCCC1	161 to 164 °C
COC[C@H]1C[C@@H](n2cnc3c(N[C@H]4CCN(c5ccc(C(F)(F)F)cn5)C4)ncnc32)[C@@H](O)[C@H]1O	166 to 168 °C
Cc1ccc2c(c1)C(C)(O)c1ccccc1C=C2 (stereo not given)	102 to 103 °C
CCCCC[C@H]1CC[C@H](CCCOc2ccc(O)cc2)CC1	100 to 101 °C
CC(C)Nc1cncc(C#N)c1	82 °C
Clc1ccccc1-c1cnccn1	38 to 39 °C
O=C1c2ccccc2C(=O)N1CCNOCc1ccccc1	89 to 91 °C
COC(=O)C1C(=O)NC(C)C1c1c(Cl)cccc1Cl (stereo not given)	157 to 158 °C
CCn1cc(C(=O)O)c(=O)c2cc(F)c(N3CCNC(c4ccc(Cl)s4)C3)cc21 (stereo not given)	232 to 234 °C
COC(=O)[C@H]1CC[C@H](N2CCN(c3ccc(C4(C)CCN(C(=O)C(F)(F)F)CC4)cc3)C2=O)CC1	158 to 161 °C
COc1ccc(CS(=O)(=O)c2cc3cc(Br)ccc3oc2=O)cc1	231 to 232 °C
COC(=O)CSc1ccc(N2CC(CNC(C)=O)OC2=O)cc1F (stereo not given)	119 to 120 °C
CCCCCCCCNc1ccc(NCCCCCCCC)c2c1C(=O)c1ccccc1C2=O	72 to 74 °C
CC(C)CCCC(C)C1CCC2C3C=CC4=CC(=O)C5OC5C4(C)C3CCC12C (stereo not given)	107 to 109 °C
COC(=O)C(C)(C)OCC#Cc1cc(C(F)(F)F)ccc1NS(=O)(=O)c1cc(C)cc(C)c1	128 to 130 °C
S=C1CCCC(c2ccc(Br)cc2)N1 (stereo not given)	157 °C
CSc1ccc(C(=O)Cc2ccccc2)cc1Cl	101 to 102 °C
COC(=O)C(Cc1ccc(Cl)cc1)NC(=O)C1CCC(CNC(=O)OC(C)(C)C)CC1 (stereo not given)	178 to 179 °C
O=c1ncc(Br)cn1CC=CCl	114 to 116 °C
CCOc1cc2c(cc1OCC)[C@@H]1CN(C)CC[C@@H]1N=C2c1ccc(NS(=O)(=O)c2ccc(C)cc2)cc1	267 to 268 °C
